Entries after “also recorded” stand apart in the source; their conditions may differ. Marks after values point to notes of the source that are not given here.
Columns and labels:
[1] = target: T1, pepsin (Sus scrofa, UniProt P00791); experiment: Degree of hydrolysis by protease (Table 3); type: biochemical, pig; conditions: after 2 hours; protease 10 μM; substrate 0.2 mM (G1-G3, L1-L3) or 0.1 mM (G4, L4); n.d. = no hydrolysis was detected; hydrolysate INH
T1 construct: pepsin derived from pig gastric mucosa; purchased Sigma-Aldrich Chemical Co; host or cells: pig gastric mucosa
T1 sequence (P00791 60-385): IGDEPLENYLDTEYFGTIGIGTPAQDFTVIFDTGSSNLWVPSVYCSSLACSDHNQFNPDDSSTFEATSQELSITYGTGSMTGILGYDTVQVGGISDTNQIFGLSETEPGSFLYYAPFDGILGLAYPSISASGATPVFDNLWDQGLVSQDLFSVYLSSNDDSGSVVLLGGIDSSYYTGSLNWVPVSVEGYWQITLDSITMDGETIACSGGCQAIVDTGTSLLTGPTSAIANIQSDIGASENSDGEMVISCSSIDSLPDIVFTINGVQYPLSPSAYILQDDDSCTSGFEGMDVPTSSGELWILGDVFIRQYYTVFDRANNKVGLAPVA
Method: (§1) A hydrolysate was measured using a HPLC system.

[2] = target: T2, chymopapain (Carica papaya, UniProt P14080); experiment: Michaelis-Menten kinetics of hydrolysis by cysteine protease (Table 4); type: biochemical, papaya latex; conditions: average and standard deviation, at least 3 experiments
T2 construct: papain and chymopapain derived from papaya latex; purchased Sigma-Aldrich Chemical Co; host or cells: papaya latex
T2 sequence (P14080 135-352): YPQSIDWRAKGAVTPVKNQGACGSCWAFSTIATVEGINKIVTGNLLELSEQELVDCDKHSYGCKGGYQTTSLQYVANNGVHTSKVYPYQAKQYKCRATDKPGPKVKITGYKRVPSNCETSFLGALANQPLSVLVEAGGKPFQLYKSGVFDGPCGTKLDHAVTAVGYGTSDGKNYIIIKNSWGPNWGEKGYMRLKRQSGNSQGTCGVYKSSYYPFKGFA
Method: (§2) The reaction was performed under alkaline conditions.

[3] = target: T3, papain (Carica papaya, UniProt P00784); experiment: as above; type: biochemical, papaya latex; conditions: average and standard deviation, at least 3 experiments
T3 construct: papain and chymopapain derived from papaya latex; purchased Sigma-Aldrich Chemical Co; host or cells: papaya latex
T3 sequence (P00784 134-345): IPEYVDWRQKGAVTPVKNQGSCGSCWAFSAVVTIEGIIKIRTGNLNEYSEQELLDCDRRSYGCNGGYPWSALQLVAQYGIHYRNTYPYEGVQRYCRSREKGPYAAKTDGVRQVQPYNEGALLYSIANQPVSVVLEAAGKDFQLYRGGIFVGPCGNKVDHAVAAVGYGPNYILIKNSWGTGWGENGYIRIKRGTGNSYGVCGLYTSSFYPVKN
Method: as §2

[4] = target: T4, cathepsin B (Homo sapiens, UniProt P07858); experiment: Selective hydrolysis by cathepsins, fluorescence (FIG. 20); type: biochemical; parameters: cathepsins B and L derived from a human liver; purchased Sigma-Aldrich Chemical Co; host or cells: human liver; conditions: substrate 1.0 μM, protease 10 mM, 30 minutes
Method: as §2
(§3) The results of experiments were illustrated in FIG. 20. Since the hydrolysis by cathepsin B was faster than the hydrolyses by papain and chymopapain, the reaction was performed with a substrate (concentration: 1.0 μM) and a protease (concentration: […]) of which the concentrations were set lower than those in Experimental Example 2 (substrate (concentration: 2.5 μM) and protease (concentration: 0.1 μM) reacted for two hours) for 30 minutes in FIG. 20. C1, C2, CB, CL, and CS represented on an X-axis respectively denote papain, chymopapain, cathepsin B, cathepsin L, and cathepsin S. Each experiment was repeated at least three times.

[5] = target: T5, cathepsin L (Homo sapiens, UniProt P07711); experiment: Michaelis-Menten kinetics of hydrolysis by cysteine protease (Table 4); type: biochemical; conditions: average and standard deviation, at least 3 experiments
T5 construct: cathepsins B and L derived from a human liver; purchased Sigma-Aldrich Chemical Co; host or cells: human liver
T5 sequence (P07711 114-333): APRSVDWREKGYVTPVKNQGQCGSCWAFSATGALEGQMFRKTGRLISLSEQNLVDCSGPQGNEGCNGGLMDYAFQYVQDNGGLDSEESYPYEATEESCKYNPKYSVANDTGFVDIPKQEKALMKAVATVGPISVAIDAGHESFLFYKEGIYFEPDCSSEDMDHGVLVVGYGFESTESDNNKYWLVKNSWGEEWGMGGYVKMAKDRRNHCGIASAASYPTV
Method: as §2

[6] = target: T5, cathepsin L; experiment: Selective hydrolysis by cathepsins, fluorescence (FIG. 20); type: biochemical; conditions: substrate 1.0 μM, protease 10 mM, 30 minutes
Method: as §2, §3

[7] = target: T6, cathepsin S (Homo sapiens, UniProt P25774); experiment: as above; type: biochemical; conditions: substrate 1.0 μM, protease 10 mM, 30 minutes
T6 construct: cathepsin S derived from a human spleen; purchased Sigma-Aldrich Chemical Co; host or cells: human spleen
T6 sequence (P25774 115-331): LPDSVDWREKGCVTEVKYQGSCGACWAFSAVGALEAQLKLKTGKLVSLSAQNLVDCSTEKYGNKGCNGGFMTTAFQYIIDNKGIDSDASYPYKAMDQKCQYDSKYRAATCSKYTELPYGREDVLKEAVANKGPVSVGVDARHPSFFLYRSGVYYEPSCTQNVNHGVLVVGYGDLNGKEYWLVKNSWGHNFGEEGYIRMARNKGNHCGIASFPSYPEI
Method: as §2, §3

[8] = target: T7, trypsin (Bos taurus, UniProt P00760); experiment: Protease-catalyzed hydrolysis, restored DBDY fluorescence (selectivity, FIGS. 11-19); type: biochemical, bovine; conditions: substrate 2.5 μM, protease 0.1 μM, two hours
T7 construct: chymotrypsin and trypsin derived from fetal bovine pancreas; purchased Sigma-Aldrich Chemical Co; host or cells: bovine pancreas
T7 sequence (P00760 24-246): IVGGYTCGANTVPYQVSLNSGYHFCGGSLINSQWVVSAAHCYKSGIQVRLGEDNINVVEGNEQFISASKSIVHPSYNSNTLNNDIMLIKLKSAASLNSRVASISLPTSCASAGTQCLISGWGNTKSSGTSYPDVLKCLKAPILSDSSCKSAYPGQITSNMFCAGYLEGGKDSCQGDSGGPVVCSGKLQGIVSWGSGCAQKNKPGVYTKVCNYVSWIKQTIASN
Method: as §2
(§4) The hydrolysis reaction was performed for two hours. […] Each experiment was repeated at least three times.

[9] = target: T7, trypsin; experiment: Degree of hydrolysis by protease (Table 3); type: biochemical, bovine; conditions: after 2 hours; protease 10 μM; substrate 0.2 mM (G1-G3, L1-L3) or 0.1 mM (G4, L4); n.d. = no hydrolysis was detected; hydrolysate INH
Method: as §1

[10] = target: T8, chymotrypsin (Bos taurus, UniProt P00766); experiment: Degree of hydrolysis by protease (Table 3); type: biochemical, bovine; conditions: after 2 hours, protease 10 μM, substrate 0.2 mM (G1-G3, L1-L3) or 0.1 mM (G4, L4), n.d. = no hydrolysis was detected, hydrolysate Gly-INH (G), Lys-INH (L1-L3)
T8 construct: chymotrypsin and trypsin derived from fetal bovine pancreas; purchased Sigma-Aldrich Chemical Co; host or cells: bovine pancreas
Method: as §1

[11] = target: T4, cathepsin B; experiment: Michaelis-Menten kinetics of hydrolysis by cysteine protease (Table 4); type: biochemical; parameters: cathepsins B and L derived from a human liver; purchased Sigma-Aldrich Chemical Co; host or cells: human liver; conditions: average and standard deviation, at least 3 experiments
Method: as §2

[12] = target: T3, papain; experiment: Degree of hydrolysis by protease (Table 3); type: biochemical, papaya latex; conditions: after 2 hours; protease 10 μM; substrate 0.2 mM (G1-G3, L1-L3) or 0.1 mM (G4, L4); hydrolysate INH
Method: as §1

[13] = tested on: cysteine protease (papain, chymopapain, bromelain); experiment: Protease-catalyzed hydrolysis, restored DBDY fluorescence (selectivity, FIGS. 11-19); type: biochemical, papaya latex; pineapple stem; conditions: substrate 2.5 μM, protease 0.1 μM, two hours
Method: as §2, §4

[14] = tested on: other proteases (non-cysteine proteases of the 13-protease panel); experiment: as above; type: biochemical; conditions: substrate 2.5 μM, protease 0.1 μM, two hours
Method: as §2, §4

[15] = target: thermolysin (Bacillus thermoproteolyticus, UniProt P00800); conditions: after 2 hours; protease 10 μM; substrate 0.2 mM (G1-G3, L1-L3) or 0.1 mM (G4, L4); n.d. = no hydrolysis was detected; hydrolysate INH
Sequence of thermolysin (P00800 233-548): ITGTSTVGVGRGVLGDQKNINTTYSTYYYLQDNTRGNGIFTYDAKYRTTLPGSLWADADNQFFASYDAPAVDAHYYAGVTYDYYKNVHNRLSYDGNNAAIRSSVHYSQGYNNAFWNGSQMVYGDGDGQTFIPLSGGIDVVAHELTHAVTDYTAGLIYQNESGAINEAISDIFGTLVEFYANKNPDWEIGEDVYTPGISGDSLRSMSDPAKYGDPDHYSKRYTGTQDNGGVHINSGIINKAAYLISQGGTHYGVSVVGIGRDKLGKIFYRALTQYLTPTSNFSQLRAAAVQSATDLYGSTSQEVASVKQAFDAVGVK
Method: For the meaningful comparison of proteases, a hydrolysis reaction was performed under the optimum conditions as reported in other documents (regarding chymotrypsin, subtilisin, thermolysin and pepsin, refer to R. Beynon, J. S. Bond, Proteolytic Enzymes (Second Edition), Oxford University Press, 2001, pp. 295-316; regarding trypsin, proteinase K, carboxy peptidase A, collagenase, dispase, aspergillopepsin, papain, chymopapain, bromelain, cathepsin B, cathepsin L, and cathepsin S, refer to the catalog of Sigma-Aldrich Corporation).
Before the reaction, the mixtures of the reaction buffer solutions and proteases were previously incubated for 30 minutes in a water bath in which the temperature was adjusted to an analysis temperature. The hydrolysis reaction was initiated by adding a substrate dissolved in DMSO. The volume of the added substrate solution was controlled such that the final concentration of DMSO was lower than 1.5% (v/v).
A hydrolysate was measured using a HPLC system. In order to prepare a sample, a hydrolysis reaction was terminated by adding 2% (v/v) 1M HCl with respect to a serine protease, cysteine protease and metalloprotease, and adding 1M NaOH with respect to an aspartic protease. The separation was performed using the mixture of 10 mM-ammonium bicarbonate and acetonitrile as an eluent in C-18 column (particle size: 5 μm, 250 mm×4.6 mm, pore size: 80 Å, Phenomenex, USA). The elution was performed for 15 minutes, while the linear gradient of acetonitrile was increased from 0 to 60%. The flow rate and separation temperature of the eluent were maintained at 1 mL min^−1 and 35° C. The hydrolysate was detected at a wavelength of 254 nm.
Based on the report that a hydrophobic amino acid such as phenylalanine was preferred at a P2 position in most of the papain-like cysteine proteases, Boc-aromatic amino acid-Gly-INH and Boc-aromatic amino acid-Lys-INH were prepared in particular, and experimented as a substrate with respect to chymotrypsin, trypsin, papain, pepsin and thermolysis.

CC(C)(C)OC(=O)NC(Cc1ccc(O)c(-c2cc(CC(NC(=O)OC(C)(C)C)C(=O)NC(CCCCN)C(=O)NNC(=O)c3ccncc3)ccc2O)c1)C(=O)NC(CCCCN)C(=O)NNC(=O)c1ccncc1 (centres unmarked) [Substrate L4, DBDY-(Lys-INH)2]
degree of hydrolysis by Pepsin [1]: 1.04 ± 0.03%
Kcat [2]: 0.0005 ± 0.00017 s⁻¹
Km [2]: 2.2 ± 0.28 µM
Kcat [3]: 0.0173 ± 0.00183 s⁻¹
Km [3]: 7.2 ± 0.8 µM
hydrolysis by cathepsin B [4]: hydrolyzed
Kcat [5]: 0.00333 ± 0.00017 s⁻¹
Km [5]: 1.17 ± 0.09 µM
hydrolysis by cathepsin L [6]: hydrolyzed
hydrolysis by cathepsin S [7]: not hydrolyzed
hydrolysis by trypsin (increased fluorescence) [8]: hydrolyzed; also recorded: slightly hydrolyzed
degree of hydrolysis by Trypsin [9]: 46.8 ± 1.7%
degree of hydrolysis by Chymotrypsin [10]: 7.15 ± 0.47 ^c %
degree of hydrolysis by Chymotrypsin ([10]; listed as DBDY-(Lys-INH)2): hardly hydrolyzed
Kcat [11]: 0.0362 ± 0.0025 s⁻¹
Km [11]: 2.01 ± 0.05 µM
degree of hydrolysis by Papain [12]: 44.9 ± 2.8%
hydrolysis by cysteine proteases (increased fluorescence) [13]: hydrolyzed; also recorded: selectivity for cysteine proteases

CC(C)(C)OC(=O)NC(Cc1ccc(O)c(-c2cc(CC(NC(=O)OC(C)(C)C)C(=O)NCC(=O)NNC(=O)c3ccncc3)ccc2O)c1)C(=O)NCC(=O)NNC(=O)c1ccncc1 (centres unmarked) [Substrate G4, DBDY-(Gly-INH)2]
degree of hydrolysis by Pepsin [1]: 2.98 ± 0.07%
Kcat [2]: 0.00567 ± 0.0005 s⁻¹
Km [2]: 4 ± 0.25 µM
Kcat [3]: 0.0257 ± 0.005 s⁻¹
Km [3]: 7.72 ± 1.25 µM
hydrolysis by cathepsin B [4]: hydrolyzed only by cathepsin B
Kcat [5]: 0.0015 ± 0.00033 s⁻¹
Km [5]: 12.9 ± 3.69 µM
hydrolysis by cathepsin L [6]: hydrolyzed only by cathepsin B
hydrolysis by cathepsin S [7]: not hydrolyzed
hydrolysis by other (non-cysteine) proteases [14]: no hydrolysis by other proteases
degree of hydrolysis by Chymotrypsin [10]: hardly hydrolyzed
Kcat [11]: 0.0112 ± 0.001 s⁻¹
Km [11]: 2.88 µM
degree of hydrolysis by Papain [12]: 62.2 ± 2.1%
hydrolysis by cysteine proteases (increased fluorescence) [13]: showed sensitivity and selectivity for the cysteine protease; also recorded: selectivity for cysteine proteases
degree of hydrolysis by Thermolysin [15]: 0.74 ± 0.03%

Reference: patent US20150293106A1, “DIAROMATIC AMINO ACID SUBSTRATE FOR CATHEPSIN DETECTION” (INDUSTRY-ACADEMIC COOPERATION FOUNDATION, YONSEI UNIVERSITY, priority 2012, published 2015)
